{
  "source": "patent US20070203212A1",
  "about": "“METHOD OF TREATING OSTEOARTHRITIS” (WARNER-LAMBERT COMPANY, priority 2002, published 2007)",
  "key": {"[1]": {"system": "human recombinant IL-6/IL-6sR induced joint pain", "assay": "IL-6 with IL-6 soluble receptor induced joint pain in rat", "format": "in vivo", "protocol": "It should be appreciated that in Biological Methods 1, 2, 4, and 5 below, hind paw weight bearing differentials between the paw of the limb having the control joint (in animals administered test compound vehicle only) and the paw of the limb having the contralateral test joint (in control or inducement animals administered test compound vehicle only and in treatment animals administered test compound dissolved in test compound vehicle) were determined using an incapacitance tester, model 2KG (Linton Instrumentation, Norfolk, United Kingdom). The incapacitance tester has a chamber on top with an outwardly sloping front wall that supports a rat's front limbs, and two weight sensing pads, one for each hind paw, that facilitates this determination. The hind paw weight bearing differentials were expressed in grams and calculated as follows: (the average weight in grams placed on the control limb minus the average weight in grams placed on the contralateral test limb for each of the inducement or treatment animals) minus (the average weight in grams placed on the control limb minus the average weight in grams placed on the contralateral test limb for each of the control animals). All results were statistically analyzed by comparing the average results for an induction or treatment group with the average result for its control group at the same time point using analysis of covariance (“ANCOVA”) followed by the Hoehberg's procedure and those with statistical significance had p<0.05 unless otherwise noted.\nHuman recombinant IL-6 (100 ng per rat; R&D Systems, Minneapolis, Minn.) was incubated at room temperature with human recombinant IL-6 soluble receptor (300 ng per rat; R&D Systems, Minneapolis, Minn.) in phosphate buffered saline (“PBS”) for 15 minutes prior to injection. Rats were anesthetized with 5% volume/volume (“v/v”) isoflurane gas and maintained with 2% v/v isoflurane gas. The anesthetized rats were given a single intra-articular injection of IL-6/WL-6sR through the infrapatellar ligament of the right knee in a volume of 50 μL. The contralateral control knee was injected with 50 μL of PBS. Administration of isoflurane gas was discontinued, and the rats became fully conscious about 5 minutes later.\nShifts in hind paw weight distribution from the right (arthritic) to the left (contralateral control) paws were utilized as an index of joint pain and as a measure of compound efficacy. An incapacitance tester (Model 2KG, Linton Instrumentation, UK) was employed for determination of hind paw weight distribution. Each data point is the mean of three, 5-second readings.\nCI-1027 was dissolved in BPMC vehicle as described above. Baseline changes in hind paw weight distribution readings were determined one day prior to injection of IL-6/IL-6sR. On the day of the experiment (Day 0), a single dose of CI-1027 (10, 30 or 100 mg/kg) was given via oral gavage 3 hours prior to injection of IL-6/IL-6sR (n=10 rats per group). Changes in hind paw weight distribution were determined one, three, and six hours after injection of IL-6/IL-6sR.\nIn Table 4 below, data from the method of Biological Method 5 are expressed as a percent inhibition of a change in hind paw weight distribution ± the standard error of the mean. The percents inhibition were calculated as follows. Percent inhibition of a change in hind paw weight distribution [formula] wherein: ΔWC is the hind-paw weight differential between the healthy limb and the hrIL-6+ hrIL-6sR injected limb of the control animal group administered vehicle alone, as measured at time 1, 3, or 6 hours post injection; and\nΔWG is the hind-paw weight differential between the healthy limb and the hrIL-6+ hrIL-6sR injected limb of a treatment animal group as measured at time 1, 3, or 6 hours post injection."}, "[2]": {"system": "carrageenan-induced thermal hyperalgesia", "assay": "Carrageenan-induced thermal hyperalgesia (CITH), paw withdrawal latency", "format": "in vivo, rat", "settings": "single oral dose 30 mg/kg on Day 1, 4 hours post dose", "protocol": "Male Sprague Dawley rats (200-300 g), obtained from Charles River, were housed in groups of 2 under a 12 hour light/dark cycle with food and water ad libitum. Animals were allowed to acclimate to the test room one hour prior to testing.\nThermal hyperalgesia was assessed using the rat plantar test (apparatus from Univ. California, San Diego) following a modified method of Hargreaves et al., 1988. Rats were habituated to the apparatus, which consisted of three perspex boxes that individually housed […] on an elevated glass table. A mobile radiant heat source (halogen lamp) was located under the glass table and focused onto the hind paw. Paw withdrawal latencies (PWL) were recorded in seconds (“s”). An automatic cut off point of 22.5 s was set to prevent tissue damage. The mean of 2-3 PWL was taken at each time point for both hind paws of each animal. The apparatus was calibrated to give a PWL of approximately 10 s before carrageenan administration.\nAfter basal PWL were determined, animals receive an intraplantar 100 μL of 10 mg/mL) into the right hind paw. Lambda carrageenan (Sigma Chemical Co.) was dissolved in isotonic saline 5 minutes prior to injecting. PWL were reassessed following the same protocol 2 hours post carrageenan (this time point represented the start of peak hyperalgesia) to ascertain that hyperalgesia had developed. 6-(5-Carboxy-5-methyl-hexyloxy)-2,2-dimethyl-hexanoic acid, calcium salt was then administered orally via oral dosing needles 2.5 hours post carrageenan injection, and PWL were taken again at 30- or 60-minute intervals post drug administration for 6 hours.\nData consisted of the mean of 2-3 reads/paw for individual animals. Group data was the compiled individual means. Percent inhibition was calculated as follows for each time point: (mean drug treated−mean control)/(mean baseline−mean control)×100."}, "[3]": {"system": "prostaglandin-F2a (PGF2a) expression", "assay": "PGF2a expression from calcium ionophore-stimulated rat basophilic leukemia cells", "format": "cell-based"}, "[4]": {"system": "leukotriene B4 (LTB4) expression", "assay": "LTB4 expression from calcium ionophore-stimulated rat basophilic leukemia cells", "format": "cell-based"}, "[5]": {"assay": "Blood pressure in normal healthy humans", "format": "in vivo, human"}},
  "data": [
    {"smiles": "CC(C)(CCCCOCCCCC(C)(C)C(=O)[O-])C(=O)[O-].[Ca+2]", "note": "[CI-1027, 6-(5-carboxy-5-methyl-hexyloxy)-2,2-dimethyl-hexanoic acid, calcium salt]", "values": [
      {"measurement": "inhibition of change in hind paw weight distribution", "setting": "[1]; 10 mg/kg PO 3 hours before IL-6/IL-6sR injection, 1 hour post injection (FIG. 6)", "value": "53±9", "unit": "%"},
      {"measurement": "inhibition of change in hind paw weight distribution", "setting": "[1]; 10 mg/kg PO 3 hours before injection, repeat experiment, blinded readings (FIG. 7)", "value": "63±6", "unit": "%"},
      {"measurement": "inhibition of change in hind paw weight distribution", "setting": "[1]; 30 mg/kg PO 3 hours before IL-6/IL-6sR injection, 1 hour post injection (FIG. 6)", "value": "74±8", "unit": "%"},
      {"measurement": "inhibition of change in hind paw weight distribution", "setting": "[1]; 30 mg/kg PO 3 hours before injection, repeat experiment, blinded readings (FIG. 7)", "value": "71±10", "unit": "%"},
      {"measurement": "inhibition of change in hind paw weight distribution", "setting": "[1]; 100 mg/kg PO 3 hours before IL-6/IL-6sR injection, 1 hour post injection (FIG. 6)", "value": "57±15", "unit": "%"},
      {"measurement": "change in hind paw weight distribution", "setting": "[1]; 10, 30, 100 mg/kg PO, 3 and 6 hours post injection (6 and 9 hours post administration)", "value": "No significant effect"},
      {"measurement": "Inhibition of Pain (% versus control), IL-6", "setting": "[1]; single oral dose 30 mg/kg on Day 1, 4 hours post dose", "value": "71 ± 10", "unit": "%"},
      {"measurement": "Inhibition of Pain (% versus control), CITH (paw withdrawal latency)", "setting": "[2]", "value": "65 ± 20", "unit": "%"},
      {"measurement": "inhibition of PGF2a expression", "setting": "[3]", "value": "does not inhibit"},
      {"measurement": "inhibition of LTB4 expression", "setting": "[4]", "value": "does not inhibit"},
      {"measurement": "effect on blood pressure", "setting": "[5]", "value": "no effect or perhaps even slightly (1-5 mmHg) decreases"}
    ]}
  ]
}
